# Measurements taken from US7070965B1, “Small molecule anticancer compounds and related production process” (priority 1998, dated 2006).
# Entries after “also recorded” stand apart in the source; their conditions may differ.
# Experiments:
# [1] = system: human gastric cancer cell line SGC7901; test: MTT assay, inhibition of cell growth; format: cell-based; conditions: dissolved with 10% ethanol; for Inhibitory rate (%) on cell growth: 24 hours, listed as extracted iso-C15
# Method: (§1) MTT assay was performed to test the cytotoxicity. The K562 and SGC7901 cells were maintained in exponential growth in RPMI 1640 medium supplemented with 15% heat-inactivated newborn calf serum. The cells were plated at a density of 2×10^4 cells/100 μl medium/well into 96-well plate with medium containing samples in five final concentrations (7.5, 15, 30, 60 and 90 μg/ml) for iso-C15 (either synthesized or extracted) and one final concentration (30 μg/ml) for the others. The media in control wells contained no samples. The cells were incubated at 37° C. in a highly humidified incubator under 5% CO2 atmosphere for 24 hours. The supernatant was removed by fast inversion of the plate. 20 μl of 5 mg/ml MTT solution were added into each well. Incubation was continued for 4 hours. DMSO 100 μl/well was added and the plate was vibrated for 10 minutes. A570nm was read at the Immunoreader BioTek EL311S.
# (§2) The inhibition rate (%)=1−(mean A570nm in test wells/mean A570nm in control wells)
# [2] = system: Human leukemia cell line K562; test: MTT assay, inhibition of cell growth; format: cell-based; conditions: for Inhibitory rate (%) on cell growth: 24 hours, dissolved with 10% ethanol, listed as extracted iso-C15
# Method: as §1, §2
# [3] = Human clinical studies on the safety of iso-C15; format: in vivo
# Method: Chemically synthesized iso-C15 of 99.8% purity were prepared in 0.20 g capsules. Six healthy adult volunteers (4 male, 2 female) of average age 35.6 were divided into three groups, and orally received iso-C15 capsules for thirty days. Low dose group: one case, 0.6 g daily; middle dose group: two cases, 1.2 g daily; high dose group: three cases, 1.8 g daily. The examinations were carried out before, during and after experiment, including physical examinations, blood and urine routine examinations, function of heart, liver and kidney, X-ray radioscopy of lung and subjective symptom.
# [4] = system: K-562 human leukemia; test: Cytotoxicity ID50/ID75/ID90, viability assessment; format: cell-based; conditions: 48 hours
# Method: (§3) PBLs, K-562 and SNU-1 cells in suspension culture were seeded in 96-well microplates at a density of 5×10^4 cells/well for K-562 and SNU-1, and 1×10^5 cells/well for PBLs. iso-C15 were diluted with medium to provide different concentrations (0, 1.5, 3.0, 6.0, 15.0, 30.0, and 60.0 μg/ml). Both untreated and solvent (NaOH and Tween 80) treated cells served as controls. After incubation for 48 hours at 37° C., cells were collected directly from the wells for viability assessment.
# (§4) The ID50, ID75 and ID90 were determined in duplicate in every set of experiments, and each experiment was repeated three times under identical conditions. ID50, ID75 and ID90 were defined as the concentration of iso-C15 required to kill 50, 75 or 90%, respectively, of cells (compared with that in untreated cells) and computed using CalcuSyn for Windows software (Biosoft, Cambridge UK) based on Median Effect method by Dr. T. C. Chou.
# [5] = system: SNU-1 human gastric carcinoma; test: Cytotoxicity ID50/ID75/ID90, viability assessment; format: cell-based; conditions: 48 hours
# Method: as §3, §4
# [6] = system: normal human PBLs; test: In situ cell death detection, POD; format: cell-based; conditions: 60 μg/ml, 8 hours
# Source text: In Situ Cell Death Detection Kit, POD (Mannheim Boehringer GmbH) was used to detect the individual apoptotic cells. Cleavage of genomic DNA during apoptosis may yield double-stranded, low molecular weight DNA fragments as well as single strand breaks in high molecular weight DNA. Those DNA strand breaks can be identified by labeling free 3′-OH termini with modified nucleotides in an enzymatic reaction. In this kit terminal deoxynucleotidyl transferase (TdT) is used to label free 3′-OH ends in genomic DNA with fluorescein-dUTP. The incorporated fluorescein is visualized under fluorescence microscope directly. The incorporated fluorescein can also bind to anti-fluorescein antibody POD and be detected by substrate reaction. Stained cells can be analyzed under light microscope.
# Four human tumor cell lines, K-562 human leukemia, SNU-1 human gastric carcinoma cell lines, MCF-7 human breast adenocarcinoma and H1688 human small cell lung carcinoma cell lines, as well as Human PBLs were treated with iso-C15 (60 μg/ml).
# H1688, K-562 and DU145 human cancer cells and normal human PBLs were added with POD and incubated 30 min at 37° C., washed three times with PBS, then reacted with substrate AEC and incubated for 10 min at room temperature. The cells were analyzed under light microscope. […] It is evidenced that iso-C15 induces apoptosis of cancer cells but not normal human cells.
# [7] = system: H1688 human small cell lung carcinoma; test: Cytotoxicity ID50/ID75/ID90, trypan blue dye exclusion; format: cell-based; conditions: 48 hours
# Method: (§5) All cells in adherent culture were initiated at 5×10^4 cells/well in 96-well microplates and treated immediately with iso-C15 at different concentrations (0, 1.5, 3.0, 6.0, 15.0, 30.0, and 60.0 μg/ml) diluted with medium. Both untreated and solvent (NaOH and Tween 80) treated cells served as controls. The treated cells were incubated for 48 hours at 37° C. After incubation, the supernatants were removed and the cells were trypsinized and collected prior to viability assessment by trypan blue dye exclusion.
# as §4
# [8] = system: MCF-7 human breast adenocarcinoma; test: as above; format: cell-based; conditions: 48 hours
# Method: as §5, §4
# [9] = system: DU-145 human prostate carcinoma; test: as above; format: cell-based; conditions: 48 hours
# Method: as §5, §4
# [10] = system: SNU-423 human hepatocellular carcinoma; test: as above; format: cell-based; conditions: 48 hours
# Method: as §5, §4
# [11] = system: HCT 116 human colon carcinoma; test: as above; format: cell-based; conditions: 48 hours
# Method: as §5, §4
# [12] = 0.6–1.8 g daily oral, thirty days
# [13] = after test, 0.6–1.8 g daily oral, thirty days
compound,measurement,setting,value
"CC(C)CCCCCCCCCCCC(=O)O [iso-C15, 13-methyltetradecanoic acid]",Inhibitory rate (%) on cell growth,[1]; 15 μg/ml,28.1%
same,Inhibitory rate (%) on cell growth,[1]; 30 μg/ml,51.2%
same,Inhibitory rate (%) on cell growth,[1]; 60 μg/ml,62.1%
same,Inhibitory rate (%) on cell growth,[1]; 90 μg/ml,68.8%
same,inhibition at 15 µg/mL,"[1]; Homo sapiens, SGC-7901, 24 h, 15 μg/ml, read-out: Inhibitory rate (%) on cell growth",27.5%
same,inhibition at 30 µg/mL,"[1]; Homo sapiens, SGC-7901, 24 h, 30 μg/ml, read-out: Inhibitory rate (%) on cell growth",50.5%
same,inhibition at 60 µg/mL,"[1]; Homo sapiens, SGC-7901, 24 h, 60 μg/ml, read-out: Inhibitory rate (%) on cell growth",63.1%
same,inhibition at 90 µg/mL,"[1]; Homo sapiens, SGC-7901, 24 h, 90 μg/ml, read-out: Inhibitory rate (%) on cell growth",68.4%
same,Inhibitory rate (%) on cell growth,[2]; 7.5 μg/ml,27.1%
same,Inhibitory rate (%) on cell growth,[2]; 15 μg/ml,51.2%
same,Inhibitory rate (%) on cell growth,[2]; 30 μg/ml,72.2%
same,Inhibitory rate (%) on cell growth,[2]; 60 μg/ml,83.7%
same,Inhibitory rate (%) on cell growth,[2]; 90 μg/ml,87.2%
same,inhibition at 7.5 µg/mL,"[2]; Homo sapiens, K562, 24 h, read-out: Inhibitory rate (%) on cell growth, 7.5 μg/ml, dissolved with 10% ethanol",26.2%
same,inhibition at 15 µg/mL,"[2]; Homo sapiens, K562, 24 h, read-out: Inhibitory rate (%) on cell growth, 15 μg/ml, dissolved with 10% ethanol",50.1%
same,inhibition at 30 µg/mL,"[2]; Homo sapiens, K562, 24 h, read-out: Inhibitory rate (%) on cell growth, 30 μg/ml, dissolved with 10% ethanol",71.6%
same,inhibition at 60 µg/mL,"[2]; Homo sapiens, K562, 24 h, read-out: Inhibitory rate (%) on cell growth, 60 μg/ml, dissolved with 10% ethanol",83.1%
same,inhibition at 90 µg/mL,"[2]; Homo sapiens, K562, 24 h, read-out: Inhibitory rate (%) on cell growth, 90 μg/ml, dissolved with 10% ethanol",85.3%
same,toxicity / side effects in volunteers,"[3]; 0.6 g–1.8 g daily for one month, oral",without any side effects; also recorded: without any toxicity effects
same,"heart and lung, electrocardiogram (EKG) and X-ray radioscopy",[3]; [12],No abnormality
same,urine routine,[3]; [12],no abnormality
same,ALT,[3]; [13],15.00 ± 10.33 μ/L
same,BUN,[3]; [13],6.47 ± 1.72 mmol/L
same,GRAN,[3]; [13],3.80 ± 0.89 × 10^9
same,HB,[3]; [13],128 ± 16.9 g/L
same,PLT,[3]; [13],232.0 ± 52.1 × 10^9/L
same,RBC,[3]; [13],4.62 ± 0.69 × 10^12/L
same,WBC,[3]; [13],7.50 ± 0.71 × 10^9/L
same,ALT,"[3]; before test, X ± SD, 6 cases",15.17 ± 8.70 μ/L
same,BUN,"[3]; before test, X ± SD, 6 cases",6.69 ± 2.14 mmol/L
same,GRAN,"[3]; before test, X ± SD, 6 cases",3.20 ± 0.59 × 10^9
same,HB,"[3]; before test, X ± SD, 6 cases",122 ± 10.4 g/L
same,PLT,"[3]; before test, X ± SD, 6 cases",203.0 ± 33.3 × 10^9/L
same,RBC,"[3]; before test, X ± SD, 6 cases",4.64 ± 0.40 × 10^12/L
same,WBC,"[3]; before test, X ± SD, 6 cases",5.80 ± 0.95 × 10^9/L
same,ID75,[4],22.27 ± 4.60 µg/mL
same,ID90,[4],43.57 ± 6.71 µg/mL
same,ID75,[5],47.43 ± 4.95 µg/mL
same,ID90,[5],80.49 ± 10.03 µg/mL
same,"apoptotic cells stained, POD",[6],few stained apoptotic cells were seen
same,ID75,[7],35.03 ± 3.59 µg/mL
same,ID90,[7],61.37 ± 8.06 µg/mL
same,ID75,[8],15.99 ± 1.28 µg/mL
same,ID90,[8],25.49 ± 1.68 µg/mL
same,ID75,[9],40.43 ± 5.72 µg/mL
same,ID90,[9],81.87 ± 8.85 µg/mL
same,ID75,[10],70.46 ± 9.36 µg/mL
same,ID90,[10],120.77 ± 15.82 µg/mL
same,ID75,[11],67.96 ± 8.25 µg/mL
same,ID90,[11],108.65 ± 13.35 µg/mL
